From the NIST ThermoML archive (doi:10.1016/j.jct.2017.10.011)
± gives the expanded uncertainty stated by the source.

Columns and labels:
[1] = Molar enthalpy of transition or fusion; conditions: Crystal 2; DSC
[2] = Crystal 2; DSC

For `O=C1COC(=O)CO1` [1,4-dioxane-2,5-dione], the “Molar enthalpy of transition or fusion” value [1] was 0.422 ± 0.0502 kcal/mol and the Triple point temperature [2] was 317.51 ± 2.1 K.
